Laboratory results published in patent US20230167127A1, “COMPOUNDS AND THEIR USE IN THE TREATMENT OF BACTERIAL INFECTION” (Hoffmann-La Roche Inc., priority 2020, published 2023).

Tested on: Escherichia coli ATCC 25922
Assay: 50% growth inhibitory concentration (IC50) determination, Iso-Sensitest broth dilution
Type: cell-based
Settings: Escherichia coli, ATCC25922, 16 h, strain Escherichia coli ATCC 25922; 10-point broth dilution, optical density at 600 nm over 16 h; read-out: Escherichia coli growth inhibition IC50
Method in brief: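 10-point twofold Iso-Sensitest broth dilution (e.g. 50 to 0.097 μM final) with DMSO stocks, incubated at 35±2° C. Growth followed by OD 600 nm every 20 min over 16 h; IC50 derived from growth inhibition during logarithmic phase.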

Row | IC50 [nM] | Compound
1 | 148 | NC1c2cc(OCC3(N)CC3)cc(Cl)c2CC1CNCCC1CN(c2ccc3c(n2)NC(=O)CO3)C(=O)O1 (racemic) [Example 273, 6-[2-Oxo-5-[2-[[rac-1,2-trans-1-amino-6-[(1-aminocyclopropyl)methoxy]-4-chloro-2,3-dihydro-1H-inden-2-yl]methylamino]ethyl]-1,3-oxazolidin-3-yl]-4H-pyrido[3,2-b][1,4]oxazin-3-one; formic acid]
2 | < 97.7 | COc1nc(C)c2c(c1F)CC(CNCCC1CN(c3cnc4c(n3)NC(=O)CO4)C(=O)O1)C2 (stereo not drawn) [Example 397, 6-[5-[2-[(4-fluoro-3-methoxy-1-methyl-6,7-dihydro-5H-cyclopenta[c]pyridin-6-yl)methylamino]ethyl]-2-oxo-1,3-oxazolidin-3-yl]-4H-pyrazino[2,3-b][1,4]oxazin-3-one]
3 | 140 | N#Cc1cccc2c1C(O)C(CNCCC1CN(c3ccc4c(n3)NC(=O)CO4)C(=O)O1)C2 (racemic) [Example 151, rac-2,3-trans-3-hydroxy-2-[[2-[2-oxo-3-(3-oxo-4H-pyrido[3,2-b][1,4]oxazin-6-yl)-1,3-oxazolidin-5-yl]ethylamino]methyl]-2,3-dihydro-1H-indene-4-carbonitrile; formic acid]
4 | 145 | Cc1ncc2c(c1F)CC(CNCC[C@@H]1CN(c3cnc4c(n3)NC(=O)CO4)C(=O)O1)C2 (stereo partly drawn) [Example 339, 6-[(5R)-5-[2-[(4-fluoro-3-methyl-6,7-dihydro-5H-cyclopenta[c]pyridin-6-yl)methylamino]ethyl]-2-oxo-1,3-oxazolidin-3-yl]-4H-pyrazino[2,3-b][1,4]oxazin-3-one]
5 | < 97.7 | NC1c2cccc(Cl)c2CC1CNCCc1cn(-c2cnc3c(n2)NC(=O)CO3)c(=O)o1 (racemic) [Example 359, 6-[5-[2-[(rac-1,2-trans-1-amino-4-chloro-2,3-dihydro-1H-inden-2-yl)methylamino]ethyl]-2-oxo-1,3-oxazol-3-yl]-4H-pyrazino[2,3-b][1,4]oxazin-3-one; formic acid]
6 | 164 | NC(CNCC1CN(c2ccc3c(n2)NC(=O)CO3)C(=O)O1)C1Cc2cccc(Cl)c2C1 (stereo not drawn) [Example 158, 6-[5-[[[2-amino-2-(4-chloro-2,3-dihydro-1H-inden-2-yl)ethyl]amino]methyl]-2-oxo-1,3-oxazolidin-3-yl]-4H-pyrido[3,2-b][1,4]oxazin-3-one; formic acid]
7 | < 97.7 | NCCOc1cc(Cl)c2c(c1)CC(CNCCC1CN(c3ccc4c(n3)NC(=O)CO4)C(=O)O1)C2 (stereo not drawn) [Example 177, 6-[5-[2-[[6-(2-aminoethoxy)-4-chloro-2,3-dihydro-1H-inden-2-yl]methylamino]ethyl]-2-oxo-1,3-oxazolidin-3-yl]-4H-pyrido[3,2-b][1,4]oxazin-3-one]
8 | 727 | Nc1nnnn1CCOc1cc(F)c2c(c1)CC(CNCCC1CN(c3cnc4c(n3)NC(=O)CO4)C(=O)O1)C2 (stereo not drawn) [Example 294, 6-[5-[2-[[6-[2-(5-aminotetrazol-1-yl)ethoxy]-4-fluoro-2,3-dihydro-1H-inden-2-yl]methylamino]ethyl]-2-oxo-1,3-oxazolidin-3-yl]-4H-pyrazino[2,3-b][1,4]oxazin-3-one; formic acid]
9 | 161 | Cn1cc(COc2cc(C#N)c3c(c2)CC(CNCCC2CN(c4cnc5c(n4)NC(=O)CO5)C(=O)O2)C3)cn1 (stereo not drawn) [Example 390, 6-[(1-methylpyrazol-4-yl)methoxy]-2-[[2-[2-oxo-3-(3-oxo-4H-pyrazino[2,3-b][1,4]oxazin-6-yl)-1,3-oxazolidin-5-yl]ethylamino]methyl]-2,3-dihydro-1H-indene-4-carbonitrile]

More lines, now with the values behind:

Row | Compound | IC50 [nM]
10 | N#Cc1cccc2c1CC(CCN1CC3(C1)CN(c1ccc4c(n1)NC(=O)CO4)C(=O)O3)C2 (stereo not drawn) [Example 33, 2-[2-[6-oxo-7-(3-oxo-4H-pyrido[3,2-b][1,4]oxazin-6-yl)-5-oxa-2,7-diazaspiro[3.4]octan-2-yl]ethyl]-2,3-dihydro-1H-indene-4-carbonitrile] | < 97.7
11 | N#Cc1cccc2c1CC(CNC[C@@H](O)[C@H]1CN(c3ccc4c(c3)NC(=O)CO4)C(=O)O1)C2 (stereo partly drawn) [Example 61, 2-[[[(2R)-2-hydroxy-2-[(5R)-2-oxo-3-(3-oxo-4H-1,4-benzoxazin-6-yl)-1,3-oxazolidin-5-yl]ethyl]amino]methyl]-2,3-dihydro-1H-indene-4-carbonitrile; formic acid] | 164
12 | N#Cc1cccc2c1CC(CN(CCN)CCC1CN(c3ccc4c(n3)NC(=O)CO4)C(=O)O1)C2 (stereo not drawn) [Example 233, 2-[[2-Aminoethyl-[2-[2-oxo-3-(3-oxo-4H-pyrido[3,2-b][1,4]oxazin-6-yl)-1,3-oxazolidin-5-yl]ethyl]amino]methyl]-2,3-dihydro-1H-indene-4-carbonitrile; formic acid] | 942
13 | N[C@@H]1c2cc(OCC3(N)CC3)cc(Cl)c2C[C@H]1CN1CCC2(CC1)CN(c1ccc3c(n1)NC(=O)CO3)C(=O)O2 (racemic) [Example 274, 6-[2-Oxo-8-[[rac-1,2-trans-1-amino-6-[(1-aminocyclopropyl)methoxy]-4-chloro-2,3-dihydro-1H-inden-2-yl]methyl]-1-oxa-3,8-diazaspiro[4.5]decan-3-yl]-4H-pyrido[3,2-b][1,4]oxazin-3-one; formic acid] | < 97.7
14 | Cc1ncc(F)c2c1CC(N[C@H]1CC[C@]3(CC1)CN(c1cnc4c(n1)NC(=O)CO4)C(=O)O3)C2 (stereo partly drawn) [Example 297, trans-6-[8-[(4-fluoro-1-methyl-6,7-dihydro-5H-cyclopenta[c]pyridin-6-yl)amino]-2-oxo-1-oxa-3-azaspiro[4.5]decan-3-yl]-4H-pyrazino[2,3-b][1,4]oxazin-3-one; formic acid] | 249
15 | NC1(COc2cc3c(c(Cl)n2)CC(CNCCC2CN(c4ccc5c(n4)NC(=O)CO5)C(=O)O2)C3)CC1 (stereo not drawn) [Example 122, 6-[5-[2-[[3-[(1-aminocyclopropyl)methoxy]-1-chloro-6,7-dihydro-5H-cyclopenta[c]pyridin-6-yl]methylamino]ethyl]-2-oxo-1,3-oxazolidin-3-yl]-4H-pyrido[3,2-b][1,4]oxazin-3-one; formic acid] | < 97.7
16 | Cc1nc(N(C)C)cc2c1CC(CNCCC1CN(c3ccc4c(n3)NC(=O)CO4)C(=O)O1)C2 (stereo not drawn) [Example 419, 6-[5-[2-[[3-(Dimethylamino)-1-methyl-6,7-dihydro-5H-cyclopenta[c]pyridin-6-yl]methylamino]ethyl]-2-oxo-1,3-oxazolidin-3-yl]-4H-pyrido[3,2-b][1,4]oxazin-3-one] | 225
17 | N#Cc1nccc2c1CC(CN[C@H]1C[C@@]3(CN(c4ccc5c(n4)NC(=O)CO5)C(=O)O3)C1)C2 (stereo partly drawn) [Example 104, 6-[[[2,4-trans-6-oxo-7-(3-oxo-4H-pyrido[3,2-b][1,4]oxazin-6-yl)-5-oxa-7-azaspiro[3.4]octan-2-yl]amino]methyl]-6.7-dihydro-5H-cyclopenta[c]pyridine-1-carbonitrile] | 99.4
18 | NC1(COc2ncc3c(c2Cl)CC(CNCCC2CN(c4ccc5c(n4)NC(=O)CO5)C(=O)O2)C3)CC1 (stereo not drawn) [Example 181, 6-[5-[2-[[3-[(1-aminocyclopropyl)methoxy]-4-chloro-6,7-dihydro-5H-cyclopenta[c]pyridin-6-yl]methylamino]ethyl]-2-oxo-1,3-oxazolidin-3-yl]-4H-pyrido[3,2-b][1,4]oxazin-3-one] | < 97.7
